How the values were obtained:
[1] = systemic inflammatory response to E. coli endotoxin after hydrocortisone pre-treatment in volunteers; assay type: in vivo, human; details: for plasma G-CSF concentrations after LPS, vs Control Group: multiplex immunobead
Source text: Materials and Methods. Participants (n=36) were healthy male and female volunteers who were taking no chronic medications (other than oral contraceptives) and who were between the ages of 18 and 55.
On Day 1 of the study, participants were randomized in a double-blind manner to a Control Group, a Stress Group or a Pharm Group. A peripheral intravenous catheter was inserted in a hospital outpatient facility where participants remained during the day. For six hours, Control Group participants received intravenous saline at […] by infusion pump; Stress Group participants received 1.5 μg/kg/minute hydrocortisone (SOLUCORTEF®, Upjohn) in normal saline at 10 ml/hour, and Pharm Group participants received 3.0 μg/kg/minute hydrocortisone in normal saline at 10 ml/hour. The following day (Day 2), participants were admitted to an acute care facility where a peripheral intravenous catheter was again inserted in a proximal arm vein. Continuous electrocardiographic and pulse oximetry measurements were initiated; blood pressure and core temperature were measured every 15 minutes for the next five hours and every 30 minutes for the next 4 hours. Participants received 10 ml/kg lactated Ringer's solution intravenously over the first 2 hours after which the infusion was decreased to 1.5 ml/kg/hour. After the first hour, participants were administered 2 ng/kg E. coli endotoxin intravenously over 2 minutes. Participants remained in the acute care facility for remainder of the day with continuous nursing care and under the direct supervision of a physician. The intravenous catheter was removed after 9 hours. The following day (Day 3) and 2 days later (Day 5), repeat blood samples were obtained by venipuncture.
Salivary free cortisol measurements were made on Day 1 to compare the in vivo cortisol pre-treatment with laboratory reports that typically test the effects of free glucocorticoid concentrations. On Day 2 of the study, total plasma cortisol was measured to allow for comparison with the many clinical reports that have assessed these hormones during experimental endotoxemia and in endotoxemic patients. For salivary free cortisol measurements, saliva samples were collected with a […]™ collection device and stored at −80° C. until analysis by SALIMETRICS® Expanded Range High Sensitivity Salivary Cortisol Enzyme Immunoassay Kit (State College, Pa.). The analytical sensitivity of this assay is 3 ng/dL. For total cortisol, plasma was separated from heparinized whole blood and stored at −80° C. until analysis for plasma cortisol on an […]® 1000 analyzer using a Siemens Cortisol kit (Los Angeles, Calif.). The analytical sensitivity of this assay is 0.2 μg/dL. All adrenocorticotropic hormone (ACTH) measurements were performed on the […]® 1000 analyzer using a Siemens ACTH kit (Los Angeles, Calif.). The analytical sensitivity of this assay is 9 pg/mL. C-reactive protein (CRP) measurements were performed on the Roche P Module using the Roche High Sensitivity CRP kit (Indianapolis, Ind.). Analytical sensitivity of this assay is 0.1 mg/L. Complete blood counts were performed on the ADVIA 120® Hematology Analyzer using Siemens reagents (Ramsey, Minn.).
Plasma samples were collected and frozen at −80° C. for batched measurement of TNFalpha, IL-6 and IL-10 concentrations. TNFalpha was measured using a TNFalpha sandwich ELISA (paired antibodies; BD Biosciences Pharmingen, San Diego, Calif.). IL-6 levels were determined using an IL-6 ELISA kit (Peprotech, Rocky Hill, N.J.). IL-10 was measured using an IL-10 ELISA kit (Biosource, Camarillo, Calif.). Further cytokine testing was completed on frozen samples using multiplex immunobead technology (Luminex Corp.) which combines the principle of a sandwich immunoassay with fluorescent bead-based technology, allowing individual and multiplex analysis of multiple analytes in a single microtiter well. […]

[2] = system: Monocytes-derived Dendritic cells (MDDCs); test: surface receptor expression on monocyte-derived dendritic cells, flow cytometry; assay type: cell-based, human
Method: Materials and Methods. Uterine epithelial cell line (ECC-1) was cultured according to established methods to establish cellular polarity with apical and basolateral compartments (Schaefer, et al. (2004) Immunology 112:428-436). The formation of tight junctions by the epithelial cell monolayer was routinely monitored by measurement of transepithelial resistance (TER) (Richardson, et al. (1995) Biol. Reprod. 53:488-498). […] The pooled media was centrifuged for 5 minutes at 10,000 g and stored at −80° C. for use in subsequent studies.
Peripheral blood mononuclear cells (PBMC) were obtained from residues of platelet pheresis according to known methods (Dietz, et al. (2006) Transfusion 46:2083-2089). Monocytes were subsequently enriched with Rosette Sep reagent (StemCell, Vancouver, BC). Blood specimens were from healthy adult males. Monocytes-derived Dendritic cells (MDDCs) were in vitro generated with GM-CSF (50 ng/ml) and IL-4 (50 ng/ml) (PeproTech Inc, Rocky Hill, N.J.) (Sallusto Lanzavecchia (1994) J. Exp. Med. 179:1109-1118). MDDCs were differentiated for 7 days in the presence or absence of 24-hour conditioned medium (1:1 dilution) obtained from ECC-1. In some experiments TGF-beta receptor 1 blocker, SB431542 (10 μM; Tocris Cookson, Inc., St. Louis, Mo.) (Eriksson, et al. (2006) Am. J. Reprod. Immunol. 56:321-328; Shen, et al. (2007) Clin. Exp. Immunol. 149(1):155-61) was simultaneously added with ECC-1 CM for the entire duration of the differentiation. As positive control for TGF-beta effects on MDDCs, experimental conditions were included in which MDDCs were differentiated with recombinant human TGF-beta1 at three different concentrations (0.1, 1 and 10 ng/mL) in the presence or absence of SB431542. Following 7 days of culture, cells were harvested, washed and subsequently used for flow cytometry analyses.
Following six days of in vitro differentiation, surface staining of MDDCs was performed with the following fluorochrome-labeled monoclonal antibodies: CD1a (HI149), CD14 (61D3), from Ebioscience (San Diego, Calif.); and CD163 (215927), CCR5 (45531), CXCR4 (12G5), DC-SIGN (120507) from R&D Systems (Minneapolis, Minn.). Matched isotype controls for the antibodies were used to control for non-specific binding. Following antibody staining, cells were washed with staining buffer and fixed with 2% methanol-free paraformaldehyde in 1×PBS (2% PFA), followed by analysis with a Becton Dickinson FACS CALIBUR (San Jose, Calif.). The acquired FACS data were analyzed by CELL QUEST (BD Biosciences).
Statistical analysis was performed using two-way analysis of variance (ANOVA) ([…] Prism Version 5.0; […] Software Inc., San Diego, Calif.). A value of P<0.05 was considered significant.

HIV-1 X4/T-tropic IIIB = test: TZM-bl infectivity assay, HIV-1 IIIB; assay type: cell-based
Method: (§1) The TZM indicator cell line is a HeLa cell derivative that expresses high levels of CD4, CCR5 and CXCR4 (Wei, et al. (2002) Antimicrob. Agents Chemother. 46(6):1896-905). The cells contain HIV long terminal repeat (LTR)-driven β-galactosidase and luciferase reporter cassettes that are activated by HIV tat expression.
(§2) TZM cells were seeded at 2×10^4 cells per well in a 96-well microtiter plate and allowed to adhere overnight at 37° C. Varying doses of recombinant human Trappin-2/Elafin (Peprotech, Rocky Hill, N.J.) were incubated with HIV-1 IIIB and BaL at multiplicity of infection (MOI) 1 for 1 hour at 37° C. in a final volume of 100 μl. Following incubation, the media was aspirated from TZM cells and the virus plus Trappin-2/Elafin was added to the cells along with 100 μl of TZM media. Luciferase activity was measured after 48 hours at 37° C. with 5% CO2 in a humidified incubator. Briefly, the supernatants were aspirated, and the cells were lysed with a BETA GLO luciferase assay substrate. Light intensity of each well was measured using a luminometer. Uninfected cells were used to determine background luminescence. All infectivity assays were performed in quadruplicate.
(§3) Other experiments were conducted in order to determine whether the inhibitory effects of Trappin-2/Elafin were at the cell surface level such as the blocking of a co-receptor. For these experiments, varying doses of Trappin-2/Elafin were directly added to TZM cells and incubated for 1 hour at 37° C. prior to washing with 1×PBS and addition of IIIB or BaL viruses. In additional experiments to determine possible post-infection mechanisms of inhibition by Trappin-2/Elafin, TZM cells were infected with HIV-1 IIIB and BaL at MOI 1 and were washed at 6 hours and 24 hours post-infection followed by the addition of 10 ng/ml rTrappin-2/Elafin. Assays were developed at 48 hours by addition of the BETA-GLO substrate and measuring relative light units using a luminometer.
(§4) Since HIV-1 is an important sexually transmitted pathogen, the activity of recombinant Trappin-2/Elaf in (rTrappin-2/Elafin) was evaluated against HIV-1 X4/T-tropic IIIB and R5/M-tropic BaL. HIV-1 IIIB and BaL were incubated with rTrappin-2/Elafin at 0.01, 0.1, 1, and 10 ng/ml for 1 hour at 37° C. TZM-bl indicator cells were plated the previous day at 25,000 cells per well and grown to 70-80% confluence. The virus-Trappin-2/Elafin mixture was added to the TZM cells and incubated for 48 hours at 37° C. At the end of the incubation period, BETA-GLO substrate was added to the cells and viral infection was quantified using a luminometer, expressed as relative light units (RLU). The data was expressed as percent of control with virus-only control set at 100%. […] Therefore, the concentrations of Trappin-2/Elafin showing anti-HIV-1 activity were in the range of physiological levels of this molecule that were secreted by the FRT epithelial cells. Since the inhibitory activity was observed as a result of pre-incubation of HIV-1 and rTrappin-2/Elafin, it is contemplated that the effect of Trappin-2/Elafin on viral infection was direct. […]
(§5) Laboratory-adapted viral strains HIV-1 IIIB (×4) and BaL (R5) were obtained and virus stocks were propagated in PHA-stimulated human PBMC and stored frozen at −80° C. Virus stocks produced in PBMC of molecularly cloned HIV-1 NL4.3 (×4; lab-adapted) and YU-2.c (R5; directly cloned without culture) were obtained. Virus titers were determined on TZM-bl cells as described herein. Also used was a PBMC-derived virus stock of pCH077.c, a recently generated Clade B infectious molecular clone matching the nucleotide sequence determined to be the transmitted/founder virus sequence of CHAVI subject 700010077. […]

HIV-1 R5/M-tropic BaL = test: TZM-bl infectivity assay, HIV-1 BaL; assay type: cell-based; details: for post-infection inhibition, BaL: 20 ng/mL
Method: as §1, §2, §3, §4, §5

[3] = cells pre-incubated 1 hour, washed before virus
[4] = virus pre-incubated 1 hour with 2, 20, 200 ng/mL, 48 hours

## C[C@]12CCC(=O)C=C1CC[C@@H]1[C@@H]2[C@@H](O)C[C@@]2(C)[C@H]1CC[C@]2(O)C(=O)CO [hydrocortisone]
[1]; 1.5 μg/kg/minute at 10 ml/hr for six hours
  release of early pro-inflammatory molecules: significant enhancement
[1]; Pharm 3 μg/kg/min
  Plasma IL-6 after LPS, vs Control Group: no difference
  Plasma IL-10 after LPS, vs Control Group: no difference
  TNF-alpha concentrations in plasma after LPS, vs Control Group: not significantly different
  plasma G-CSF concentrations after LPS, vs Control Group: no difference
[1]; Stress 1.5 μg/kg/min
  TNF-alpha concentrations in plasma after LPS, vs Control Group: not significantly different
  plasma G-CSF concentrations after LPS, vs Control Group: significant augmentation
[1]; Stress 1.5 μg/kg/min, 3 and 4 hours after LPS injection
  ACTH concentrations, vs Control Group: higher
[1]; Stress 1.5 μg/kg/min, p<0.005
  Plasma IL-6 after LPS, vs Control Group: significantly higher
[1]; Stress 1.5 μg/kg/min, p<0.05
  Plasma IL-10 after LPS, vs Control Group: significantly lower

## NC(=O)c1ccc(-c2nc(-c3ccc4c(c3)OCO4)c(-c3ccccn3)[nH]2)cc1 [SB431542]
[2]; SB431542 10 μM added with ECC-1 CM during differentiation
  modulatory effect of ECC-1 CM (suppression of DC-SIGN expression on MDDCs): abrogated
[2]; TGF-beta receptor blocker with ECC-1 CM
  expression of CD1a by CM-DC: no significant effect
[2]; in vitro differentiation
  UEC conditioned medium effects on DC (enhanced CCR5 and CXCR4, suppressed DC-SIGN): abolished these effects

## rCCL20/MIP3α: recombinant human CCL20/MIP3α (Peprotech)
HIV-1 X4/T-tropic IIIB; added 6 and 24 hours post-infection, 20 ng/mL
  post-infection inhibition, IIIB: no significant post-infection inhibition
HIV-1 X4/T-tropic IIIB; [3]
  inhibition of X4/IIIB after pre-incubation of TZM cells: no significant inhibition
HIV-1 X4/T-tropic IIIB; [4]
  inhibition of X4/IIIB: inhibited
HIV-1 R5/M-tropic BaL; added 6 hours post-infection
  post-infection inhibition, BaL: slight inhibition
HIV-1 R5/M-tropic BaL; added 24 hours post-infection
  post-infection inhibition, BaL: no significant post-infection inhibition
HIV-1 R5/M-tropic BaL; [3]
  inhibition of R5/BaL after pre-incubation of TZM cells: no significant inhibition
HIV-1 R5/M-tropic BaL; [4]
  inhibition of R5/BaL: inhibited

Source: US20110104121A1, “Female Reproductive Tract and Anal Prophylaxes” (priority 2008, published 2011)
